The text below walks through data of patent US7868026B2, “Therapeutic compounds” (Pfizer Inc., priority 2005, dated 2011).

The structures appear in SMILES notation. Like-named read-outs stand apart in the source and are kept apart here.

Assay type in all cases: biochemical
Assay [1] deals with T1, CYP3A4 (Homo sapiens, UniProt P08684). Kind of assay: Determination of IC50 against CYP3A4 by measurement of inhibition of midazolam metabolism (human liver microsomes, 1-hydroxymidazolam by LC-MS/MS). On the set-up: 0.1 mg/mL human liver microsomes. As to conditions: 2 μM midazolam, 0.1 mg/mL human liver microsomes. A digest of the protocol:
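Human liver microsomes (0.1 mg/mL) incubated 8 min with 2 μM midazolam and 1 mM NADPH in 100 mM potassium phosphate, pH 7.4. 1-Hydroxymidazolam quantified by LC-MS/MS (MRM) as peak area ratio to internal standard against a metabolite standard curve.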
Background: Liver microsomes are a subcellular fraction often used to study metabolism.

For assay [2], the target named is T1, CYP3A4. Kind of assay: Determination of IC50 against CYP3A4 by measurement of inhibition of testosterone metabolism (human liver microsomes, 6-β-OH-testosterone by LC-MS/MS). Also on record: 0.1 mg/mL human liver microsomes. The settings on record: read-out: IC50 (Testo.). The essentials: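 6-β-OH-testosterone formation was read by LC-MS/MS (MRM, internal standard, standard curve) after eight minutes. Reaction contained testosterone 25 μM, NADPH 1 mM and microsomal protein 0.1 mg/mL in pH 7.4 potassium phosphate (100 mM).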

Assay [3] addresses T1, CYP3A4. Kind of assay: Determination of compound Kiapp against recombinant CYP3A4 enzyme (BFC fluorescent substrate). A digest of the protocol: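 Kiapp derived from initial velocities over the first 5 min of BFC (5 uM) oxidation, using Morrison's tight-binding equation for non-partial and Szedlacsek's for partial inhibitors. Inhibitor first pre-incubated ≥30 min with CYP3A4 (5.5 or 8 nM, ±b5) in pH 7.0 phosphate/TCEP/2% DMF at room temperature; 200 uM NADPH initiated.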

[4] abbreviates: Baculo. enzyme preparation, read-out: Kiapp (BFC, Baculo.).
Setting [5] is: Super. enzyme preparation, read-out: Kiapp (BFC, Super.).

T1 sequence (P08684 whole entry): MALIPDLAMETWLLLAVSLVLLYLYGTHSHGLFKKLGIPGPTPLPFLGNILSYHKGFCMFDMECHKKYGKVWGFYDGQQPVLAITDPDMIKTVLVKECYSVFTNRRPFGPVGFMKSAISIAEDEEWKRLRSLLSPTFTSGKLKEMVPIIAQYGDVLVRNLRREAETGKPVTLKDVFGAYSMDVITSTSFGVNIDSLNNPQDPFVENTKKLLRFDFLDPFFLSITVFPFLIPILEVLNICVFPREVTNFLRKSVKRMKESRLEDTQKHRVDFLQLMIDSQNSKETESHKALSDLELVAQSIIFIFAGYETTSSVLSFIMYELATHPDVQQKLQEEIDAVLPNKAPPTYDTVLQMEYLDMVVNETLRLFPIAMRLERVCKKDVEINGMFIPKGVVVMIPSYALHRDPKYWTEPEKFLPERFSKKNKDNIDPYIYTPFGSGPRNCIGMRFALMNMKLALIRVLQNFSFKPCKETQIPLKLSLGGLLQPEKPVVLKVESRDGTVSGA

What is called IC50 is the concentration that inhibits the measured activity by half. As for `Cc1cncc(NS(=O)(=O)c2ccccc2C(=O)N(C)CC2CCCC2)c1` [Example 347, N-(cyclopentylmethyl)-N-methyl-2-{[(5-methylpyridin-3-yl)amino]sulfonyl}benzamide], the values for the IC50 in assay [1] and in assay [2] were 13 nM and 26 nM, respectively. Further, the Ki in assay [3] (setting [4]) was found to be 34.7 nM; in assay [3] (setting [5]), 5.4 nM.

For `Cc1cncc(NS(=O)(=O)c2ccccc2C(=O)N(C)CCC(C)C)c1` [Example 348, N-methyl-N-(3-methylbutyl)-2-{[(5-methylpyridin-3-yl)amino]sulfonyl}benzamide], the half-maximal inhibitory concentration (IC50) in assay [1] came out at 7 nM; in assay [2] it was 12 nM. Besides, the Ki in assay [3] (setting [4]) came out at 30.8 nM; in assay [3] (setting [5]) it was 4.7 nM.

With `Cc1cncc(NS(=O)(=O)c2ccccc2C(=O)N(C)Cc2cccc(F)c2)c1` [Example 349, N-(3-fluorobenzyl)-N-methyl-2-{[(5-methylpyridin-3-yl)amino]sulfonyl}benzamide], the IC50 in assay [1] was 11 nM; in assay [2], 25 nM. Further, the Ki in assay [3] (setting [4]) is 56.4 nM; in assay [3] (setting [5]), 7.4 nM.

Consider `CN(Cc1cccc(F)c1)C(=O)c1ccccc1S(=O)(=O)Nc1cccnc1` [Example 350, N-(3-fluorobenzyl)-N-methyl-2-[(pyridin-3-ylamino)sulfonyl]benzamide], for which the half-inhibitory concentration (IC50) in assay [1] came to 20 nM; in assay [2] it was 39 nM. The Ki in assay [3] (setting [4]) came out at 139 nM; in assay [3] (setting [5]), 21.4 nM.

For `CCCCNC(=O)c1ccccc1S(=O)(=O)N(C)c1cccnc1` [Example 351, N-butyl-2-{[methyl(pyridin-3-yl)amino]sulfonyl}benzamide], the IC50 in assay [1] was found to be 113 nM; in assay [2] it was 110 nM. In addition, the Ki was determined as 456 nM in assay [3] (setting [4]) and 138 nM in assay [3] (setting [5]).

Take `CCCCN(C)C(=O)c1ccccc1S(=O)(=O)Nc1cncc(C)c1` [Example 352, N-butyl-N-methyl-2-{[(5-methylpyridin-3-yl)amino]sulfonyl}benzamide]: the IC50 in assay [1] stood at 16 nM; in assay [2], 31 nM. The Ki is 70.4 nM in assay [3] (setting [4]) and 22.6 nM in assay [3] (setting [5]).

With `CCCCN(C)C(=O)c1ccccc1S(=O)(=O)Nc1cncc(OC)c1` [Example 353, N-butyl-2-{[(5-methoxypyridin-3-yl)amino]sulfonyl}-N-methylbenzamide], the figures for the 50% inhibitory concentration (IC50) in assay [1] and in assay [2] were 18 nM and 31 nM, respectively. Moreover, the Ki in assay [3] (setting [4]) is 28.1 nM; in assay [3] (setting [5]), 11.5 nM.

For the compound `Cc1cncc(NS(=O)(=O)c2ccccc2C(=O)NC(C)(C)C)c1` [Example 354, N-(tert-butyl)-2-{[(5-methyl-pyridin-3-yl)amino]sulfonyl} benzamide], the half-inhibitory concentration (IC50) is 31 nM in assay [1] and 61 nM in assay [2]. In addition, the Ki in assay [3] (setting [4]) is 305 nM; in assay [3] (setting [5]) it was 25.3 nM.

As for `CN(Cc1ccccc1)C(=O)c1ccccc1S(=O)(=O)N(C)c1cccnc1` [Example 355, N-benzyl-N-methyl-2-{[methyl(pyridin-3-yl)amino]sulfonyl}benzamide], the IC50 in assay [1] worked out at 63 nM; in assay [2], 64 nM. The Ki in assay [3] (setting [4]) amounted to 181 nM; in assay [3] (setting [5]), 44.9 nM.

Take `CC1CCN(C(=O)c2ccccc2S(=O)(=O)N(C)c2cccnc2)CC1` [Example 356, N-methyl-2-[(4-methylpiperidin-1-yl)carbonyl]-N-pyridin-3-ylbenzenesulfonamide]: the IC50 was found to be 83 nM in assay [1] and 114 nM in assay [2]. The values for the Ki in assay [3] (setting [4]) and in assay [3] (setting [5]) were 483 nM and 148 nM, respectively.

With `CN(c1cccnc1)S(=O)(=O)c1ccccc1C(=O)NCc1cccc(F)c1` [Example 357, N-(3-fluorobenzyl)-2-{[methyl(pyridin-3-yl)amino]sulfonyl}benzamide], the values for the half-inhibitory concentration (IC50) in assay [1] and in assay [2] were 32 nM and 43 nM, respectively. The Ki in assay [3] (setting [4]) was 123 nM; in assay [3] (setting [5]) it was 30.4 nM.

As to `CC1CC(C)CN(C(=O)c2ccccc2S(=O)(=O)N(C)c2cccnc2)C1` (centres unmarked) [Example 358, 2-[(3,5-dimethylpiperidin-1-yl)carbonyl]-N-methyl-N-pyridin-3-ylbenzenesulfonamide], the figures for the IC50 in assay [1] and in assay [2] were 68 nM and 100 nM, respectively. The Ki in assay [3] (setting [4]) is 592 nM; in assay [3] (setting [5]) it was 137 nM.

With `CN(c1cccnc1)S(=O)(=O)c1ccccc1C(=O)NCC(C)(C)C` [Example 359, N-(2,2-dimethylpropyl)-2-{[methyl(pyridin-3-yl)amino]sulfonyl}benzamide], the 50% inhibitory concentration (IC50) in assay [1] turned out to be 101 nM; in assay [2], 260 nM. Also, the results for the Ki in assay [3] (setting [4]) and in assay [3] (setting [5]) were 593 nM and 140 nM, respectively.

Regarding `CCCCCNC(=O)c1ccccc1S(=O)(=O)Nc1cncc(C)c1` [Example 360, 2-{[(5-methylpyridin-3-yl)amino]sulfonyl}-N-pentylbenzamide], the 50% inhibitory concentration (IC50) in assay [1] was found to be 25 nM; in assay [2] it was 43 nM. For the same compound, the Ki in assay [3] (setting [4]) was 80.8 nM; in assay [3] (setting [5]), 21.8 nM.

On to `COc1ccc(CNC(=O)c2ccccc2S(=O)(=O)Nc2cncc(C)c2)cc1` [Example 361, N-(4-methoxybenzyl)-2-{[(5-methylpyridin-3-yl)amino]sulfonyl}benzamide], for which the figures for the IC50 in assay [1] and in assay [2] were 16 nM and 40 nM, respectively. In addition, the Ki in assay [3] (setting [4]) amounted to 274 nM; in assay [3] (setting [5]) it was 41.4 nM.

For the compound `Cc1cncc(NS(=O)(=O)c2ccccc2C(=O)NCCC(C)C)c1` [Example 362, N-(3-methylbutyl)-2-{[(5-methylpyridin-3-yl)amino]sulfonyl}benzamide], the results for the concentration for half-maximal inhibition (IC50) in assay [1] and in assay [2] were 26 nM and 44 nM, respectively. Besides, the Ki in assay [3] (setting [4]) worked out at 94.4 nM; in assay [3] (setting [5]), 22.9 nM.

As to `Cc1cncc(NS(=O)(=O)c2ccccc2C(=O)N2CCC(C)CC2)c1` [Example 363, 2-[(4-methylpiperidin-1-yl)carbonyl]-N-(5-methylpyridin-3-yl)benzenesulfonamide], the half-inhibitory concentration (IC50) in assay [1] amounted to 37 nM; in assay [2] it was 76 nM. Also, the Ki in assay [3] (setting [4]) came out at 169 nM; in assay [3] (setting [5]), 36.4 nM.

As for `CCCCCNC(=O)c1ccccc1S(=O)(=O)N(C)c1cncc(OC)c1` [Example 364, 2-{[(5-methoxypyridin-3-yl)(methyl)amino]sulfonyl}-N-pentylbenzamide], the concentration for half-maximal inhibition (IC50) in assay [1] was determined as 33 nM; in assay [2], 49 nM. Besides, the Ki was found to be 86.8 nM in assay [3] (setting [4]) and 23.4 nM in assay [3] (setting [5]).

Take `COc1cncc(NS(=O)(=O)c2ccccc2C(=O)N2CCC(O)CC2)c1` [Example 365, 2-[(4-hydroxypiperidin-1-yl)carbonyl]-N-(5-methoxypyridin-3-yl)benzenesulfonamide]: the IC50 in assay [1] and in assay [2] was greater than 750 nM each time. In addition, the Ki in assay [3] (setting [4]) was greater than 1000 nM; in assay [3] (setting [5]), 515 nM.

Take `COc1cncc(NS(=O)(=O)c2ccccc2C(=O)N2CCC(OC)CC2)c1` [Example 366, 2-[(4-methoxypiperidin-1-yl)carbonyl]-N-(5-methoxypyridin-3-yl)benzenesulfonamide]: the IC50 is 253 nM in assay [1] and greater than 750 nM in assay [2]. Moreover, the Ki in assay [3] (setting [4]) stood at 553 nM; in assay [3] (setting [5]), 65.1 nM.

Turning to `COc1cncc(NS(=O)(=O)c2ccccc2C(=O)N2CCOCC2)c1` [Example 367, N-(5-methoxypyridin-3-yl)-2-(morpholin-4-ylcarbonyl)benzenesulfonamide], the half-inhibitory concentration (IC50) in assay [1] is 317 nM; in assay [2] it was greater than 750 nM. Besides, the Ki in assay [3] (setting [4]) was determined as 570 nM; in assay [3] (setting [5]), 148 nM.

With `COc1cncc(NS(=O)(=O)c2ccccc2C(=O)NCc2ccc(F)c(F)c2)c1` [Example 368, N-(3,4-difluorobenzyl)-2-{[(5-methoxypyridin-3-yl)amino]sulfonyl}benzamide], the values for the IC50 in assay [1] and in assay [2] were 6 nM and 18 nM, respectively. In addition, the Ki in assay [3] (setting [4]) turned out to be 7.6 nM; in assay [3] (setting [5]), 1.1 nM.

As to `COc1cncc(NS(=O)(=O)c2ccccc2C(=O)N2CCCC2)c1` [Example 369, N-(5-methoxypyridin-3-yl)-2-(pyrrolidin-1-ylcarbonyl)benzenesulfonamide], the 50% inhibitory concentration (IC50) in assay [1] is 98 nM; in assay [2], 181 nM. Besides, the Ki in assay [3] (setting [4]) worked out at 350 nM; in assay [3] (setting [5]) it was 53.2 nM.

As for `COc1cncc(NS(=O)(=O)c2ccccc2C(=O)N(C)CCc2ccccc2)c1` [Example 370, 2-{[(5-methoxypyridin-3-yl)amino]sulfonyl}-N-methyl-N-(2-phenylethyl)benzamide], the concentration for half-maximal inhibition (IC50) in assay [1] was determined as 12 nM; in assay [2], 8 nM. Further, the Ki in assay [3] (setting [4]) worked out at 52.9 nM; in assay [3] (setting [5]), 19 nM.

For the compound `CC(C)CCN(C)C(=O)c1ccccc1S(=O)(=O)Nc1cccnc1` [Example 371, N-methyl-N-(3-methylbutyl)-2-[(pyridin-3-ylamino)sulfonyl]benzamide], the IC50 in assay [1] was 5 nM; in assay [2], 10 nM. Also, the values for the Ki in assay [3] (setting [4]) and in assay [3] (setting [5]) were 248 nM and 58.8 nM, respectively.

On to `COc1cncc(NS(=O)(=O)c2ccccc2C(=O)N(C)Cc2ccccc2)c1` [Example 372, N-benzyl-2-{[(5-methoxypyridin-3-yl)amino]sulfonyl}-N-methylbenzamide], for which the half-maximal inhibitory concentration (IC50) in assay [1] is 15 nM; in assay [2] it was 23 nM. The Ki in assay [3] (setting [4]) turned out to be 79 nM; in assay [3] (setting [5]), 18 nM.
